Data from article PMC8426238, “Synthesis and preclinical evaluation of [^11C]MTP38 as a novel PET ligand for phosphodiesterase 7 in the brain” (European Journal of Nuclear Medicine and Molecular Imaging, 2021).

Tests used:
PDE7 [1] = assay: In vitro autoradiography of rat brain sections with [^11C]MTP38; format: binding, Sprague-Dawley rats
Procedure: (§1) In vitro autoradiography was performed using 20-μm-thick fresh-frozen brain sections derived from Sprague-Dawley rats and rhesus monkeys. The sections were preincubated for 10 min in 50 mM Tris-HCl buffer (pH 7.4) at room temperature. These samples were then incubated for 60 min at room temperature in fresh buffer containing [^11C]MTP38 (2 nM) with or without unlabeled MTP38 (10 μM), MTP-X (4 μM), or MT-3014 (40 nM). The concentrations of MTP-X and MT-3014 were more than 400-fold of reported IC50 values of these agents. After the incubation, the brain sections were immersed twice in cold buffer for 3 min, dipped in cold distilled water for 10 s, and dried with warm airflow. Then the sections were contacted with imaging plates (BAS-MS2025, Fujifilm, Tokyo, Japan) for 60 min. The imaging plates were scanned with an imaging plate reader (BAS5000, Fujifilm, Tokyo, Japan), and the images were analyzed with the MultiGuage software (ver. 3.0, Fujifilm, Tokyo, Japan).

PDE7 [2] = assay: In vitro autoradiography of monkey brain sections with [^11C]MTP38; format: binding, rhesus monkeys; details: 2 nM
Procedure: as §1

PDE7 [3] = assay: PET imaging in rats with [^11C]MTP38; format: in vivo, Wistar rats
Procedure: Each rat was scanned multiple times with a shortest interval of 1 month. Rats were anesthetized with isoflurane (3% for induction and 2% for maintenance) throughout the experiment. The tail vein was cannulated for radioligand injection. Body temperature was maintained at around 37 °C using a heating pad. The head of the rat was fixed at the center of the field of view of an animal PET scanner (microPET Focus220, Siemens Medical Solutions, Malvern, USA). A 90-min list-mode data acquisition was started simultaneously with intravenous administration of [^11C]MTP38. The list-mode data were sorted into 3D sinograms, which were then Fourier-rebinned into 2D sinograms (frames: 10 s × 6, 30 s × 8, 1 min × 5, 2 min × 10, and 5 min × 12). The sinograms were reconstructed with a filtered back-projection algorithm using a Hanning filter with a cut-off at the Nyquist frequency (0.5 mm^−1).
Along with baseline scans, we conducted blockade PET experiments according to the following pretreatment protocols: (1) unlabeled MTP38 (0.5 mg/kg) was administered intravenously at 2 min before radioligand injection, and (2) MTP-X (100 mg/kg) was administered orally at 1 h before radioligand injection.
PET images were co-registered manually onto the magnetic resonance (MR) template image. Details of co-registration were described elsewhere. Regions of interest (ROIs) were placed on the striatum as a target region and on the cerebellum (gray matter) as a reference region according to the expression of PDE7B mRNA in the rat brain [6], and time-activity curves (TACs) were generated for each ROI. Radioactivity in the brain was normalized with injected radioactivity and body weight, and expressed as standardized uptake value (SUV). Then the SUV ratio between the striatum and cerebellum was obtained to estimate the radioligand binding in the target region in baseline and blockade experiments.

PDE7 [4] = assay: PET imaging in monkeys with [^11C]MTP38; format: in vivo, rhesus monkeys; details: for Striatal BPND: MRTMo, cerebellar reference
Procedure: Each monkey underwent multiple PET scans with intervals longer than 2 weeks. The monkeys were given an intramuscular injection of 0.04 mg/kg of atropine sulfate at 1.5 h before radioligand injection. They were subsequently anesthetized with an intramuscular injection of ketamine (5 mg/kg) and xylazine (0.5 mg/kg), intubated, and kept anesthetized with 1–2% isoflurane. Heart rate, electrocardiogram, body temperature, blood oxygen saturation level, and end-tidal CO2 were monitored during the PET scan. The monkeys were placed on a bed in a supine position, and the head was fixed at the center of the field of view of a microPET scanner Focus220. A transmission scan was performed for about 20 min using a ^68Ge-^68Ga point source. A 90-min list-mode data acquisition was started simultaneously with intravenous administration of [^11C]MTP38 via a saphenous vein cannula. All list-mode data were sorted into 3D sinograms, which were then Fourier-rebinned into 2D sinograms (frames: 10 s × 6, 30 s × 8, 1 min × 5, 2 min × 10, and 5 min × 12). The images were corrected for attenuation and reconstructed with a filtered back-projection algorithm using a Hanning filter with a cut-off at the Nyquist frequency (0.5 mm^−1).
Along with baseline scans, we carried out blocking PET experiments according to the following pretreatment protocols: (1) unlabeled MTP38 was administered as an intravenous bolus (0.075 mg/kg) at 1 h before radioligand injection followed by continuous infusion at a rate of 0.3 mg/kg/h until the end of the PET scan, and (2) MTP-X (0.3–30 mg/kg) was administered orally at 2 or 6 h before radioligand injection.
(§2) PET scans for monkeys at baseline and following pretreatment with unlabeled MTP38, and 3, 10, 30 mg/kg of MTP-X were performed along with arterial blood sampling to obtain a metabolite-corrected input function. In total, 22 arterial blood samples were collected manually with heparinized syringes via a saphenous artery contralateral to the radioligand injection. Sampling was performed at 10, 20, 30, 40, 50, 60, 75, 90, 105, 120, 150, 180, and 210 s and at 4, 5, 10, 20, 30, 45, 60, 75, and 90 min after radioligand injection. Blood samples were then placed on ice and divided into two aliquots, one of which was centrifuged with a refrigerated centrifuge (15,000×g, 3 min, 4 °C) to obtain plasma.
PET images were co-registered onto the individual MR images. ROIs were placed on the prefrontal and medial frontal cortices, hippocampus, amygdala, striatum (caudate + putamen), nucleus accumbens, thalamus, cerebellum (gray matter), and brainstem. TACs in the baseline and blockade experiments were generated for each ROI.
Regional TACs were examined by several analytical methods to calculate the regional total distribution volume (VT), which represents the sum of non-specific and specific radioligand binding. Compartment model (1- or 2-tissue) and Logan’s graphical analyses were employed for describing the radioligand kinetics in the brain. The fractional blood volume was fixed at 0.05. For compartment model analyses, an optimal model was chosen on the basis of Akaike’s information criterion (AIC) and model selection criterion (MSC). For graphical analyses, an equilibration time t* was determined so that by the maximum error from the regression within the linear segment was considered to be 10% for each TAC. Time stability of VT was investigated by truncating the data duration stepwise from 90 min to 30 min. The VT values with or without pretreatment with a blocker were then compared. We also validated the use of the cerebellum as a reference tissue by this comparison, in addition to the autoradiographic findings, in monkey brain slices. The non-displaceable binding potential (BPND) was calculated by the original multilinear reference tissue model (MRTMO). t* was determined in the same manner as Logan’s graphical analysis. […]

[5] = Radiometabolite analysis of arterial plasma; format: in vivo, rhesus monkeys; details: monkey; 90 min after injection
Procedure: as §2
Radioactivity in blood and plasma was measured with an auto-gamma counter (wizard 2480, PerkinElmer, Waltham, MA, USA). […] An aliquot of supernatant (< 1 mL) was injected into an HPLC system (JASCO, Tokyo, Japan) equipped with a radioactivity detector (column: CAPCELL PAK AQ, 5 μm, 10 × 250 mm; column temperature: room temperature; mobile phase: 45% CH3CN; flow rate: 6.0 mL/min). The fraction of the parent [^11C]MTP38 was calculated as a ratio of the peak area of MTP38 to the total area of peaks found on the radiochromatograms. Then, an arterial input function was determined by quantifying the metabolite-corrected arterial plasma radioactivity concentration.

PDE7 [6] = system: PDE7; set-up: method as in PMID 26330158; details: living rodent brains; cited from earlier work
[7] = monkey, baseline, Logan's graphical analysis, means of two animals

For `Cc1nc2ccc(F)cc2nc1-c1cc2nc(N3CC[C@@H](F)C3)cc(NCC(C)(C)O)n2n1` [MT-3014, reference compound], the “effect of blocker on striatal radioactivity of [^11C]MTP38” value (PDE7 [1]; [^11C]MTP38 2 nM, unlabeled MTP38 10 μM, MTP-X 4 μM, MT-3014 40 nM) was “did not change the radioligand binding”.
With `C[C@@H]1CC[C@H](C)N(c2nnc3c(N)ncc([11C]#N)n23)C1` [[^11C]MTP38] the “radioligand reactivity in the striatum” value (PDE7 [1]; 2 nM) was “high radioligand reactivity in the striatum”, the “radioligand reactivity in the striatum” value (PDE7 [2]) was “high radioligand reactivity in the striatum” and the “striatum-to-cerebellum ratio of SUV” value (PDE7 [3]; baseline, plateau from 5 min) was about 1.5. For the same compound, the “SUV in the striatum and cerebellum at 90 min” value (PDE7 [3]; iv, 90 min) was “below 1.0”, the “peak SUV in the striatum and cerebellum” value (PDE7 [3]; iv, baseline) was “exceeding 4.0” and the “time of SUV peak after injection” value (PDE7 [3]; iv, striatum and cerebellum) was at most 1 min. For the same compound, the “Striatal BPND” value (PDE7 [4]; monkey #1, baseline) was 0.409, the “Striatal BPND” value (PDE7 [4]; monkey #2, baseline) was 0.287 and the “Regional VT, AMY (amygdala)” value (PDE7 [4]; [7]) was 2.50 mL/cm^3. The “Regional VT, BS (brainstem)” value (PDE7 [4]; [7]) was 3.13 mL/cm^3, the “Regional VT, CB (cerebellum)” value (PDE7 [4]; [7]) was 2.69 mL/cm^3 and the “Regional VT, HIP (hippocampus)” value (PDE7 [4]; [7]) was 2.38 mL/cm^3. For the same compound, the “Regional VT, MFC (medial frontal cortex)” value (PDE7 [4]; [7]) was 3.27 mL/cm^3, the “Regional VT, NAc (nucleus accumbens)” value (PDE7 [4]; [7]) was 2.97 mL/cm^3 and the “Regional VT, PFC (prefrontal cortex)” value (PDE7 [4]; [7]) was 2.93 mL/cm^3. The “Regional VT, STR (striatum)” value (PDE7 [4]; [7]) was 3.59 mL/cm^3, the “Regional VT, THA (thalamus)” value (PDE7 [4]; [7]) was 3.03 mL/cm^3 and the “k3 (2-tissue compartment model)” value (PDE7 [4]; monkey, some ROIs including the striatum, model failed to estimate VT) was under 0.0001 min⁻¹. The “maximal SUV in brain” value (PDE7 [4]; monkeys, iv) was about 5, the “time of brain radioactivity peak after injection” value (PDE7 [4]; monkeys, iv) was 3 to 4 min and the “fraction of unmetabolized [^11C]MTP38 of total radioactivity in plasma” value [5] was 27.2%.
In the case of `O=C1Nc2c(Cl)ccc(OCC[18F])c2C2(CCCCC2)N1` [[^18F]MICA-003], the in vivo metabolism (PDE7 [6]) is listed as “rapid metabolic conversion to a brain-entering radiomolecule”.
